Literature values in PMC11395096, “Study of Pentacyclic Triterpenes from Lyophilised Aguaje: Anti-Inflammatory and Antioxidant Properties” (International Journal of Molecular Sciences, 2024).

Tested on: NF-κB
Parameters: method as in PMID 24853120, PMID 15668926
Conditions: cited from earlier work

Structure (SMILES)	concentration capable of inhibiting NF-κB activation [µM]
COc1cc(/C=C/C(=O)CC(=O)/C=C/c2ccc(O)c(OC)c2)ccc1O [curcumin]	10 to 50
O=c1c(O)c(-c2ccc(O)c(O)c2)oc2cc(O)cc(O)c12 [quercetin]	25 to 100
